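All cell lines were grown in 96-well plates and treated with compound for 48 hours. At the GI50, growth is halved. TGI is the concentration that stops growth completely.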
What was measured:
Assay in all cases: NCI anticancer screen, dose series, 48 h
786-0 renal = system: 786-0 renal
A498 renal = system: A498 renal
A549 NSCLC = system: A549 NSCLC
ACHN renal = system: ACHN renal
CAKI-1 renal = system: CAKI-1 renal
CCRF-CEM leukemia = system: CCRF-CEM leukemia
COLO 205 colon = system: COLO 205 colon
DU-145 prostate = system: DU-145 prostate
EKVX NSCLC = system: EKVX NSCLC
HCC-2998 colon = system: HCC-2998 colon
HCT-116 colon = system: HCT-116 colon
HCT-15 colon = system: HCT-15 colon
HL-60(TB) leukemia = system: HL-60(TB) leukemia
HOP-62 NSCLC = system: HOP-62 NSCLC
HOP-92 NSCLC = system: HOP-92 NSCLC
HS 578T breast = system: HS 578T breast
HT29 colon = system: HT29 colon
IGROV1 ovarian = system: IGROV1 ovarian
K-562 leukemia = system: K-562 leukemia
KM12 colon = system: KM12 colon
LOX IMVI melanoma = system: LOX IMVI melanoma
M14 melanoma = system: M14 melanoma
MALME-3M melanoma = system: MALME-3M melanoma
MCF7 breast = system: MCF7 breast
MDA-MB-231 breast = system: MDA-MB-231 breast
MDA-MB-435 = system: MDA-MB-435
MOLT-4 leukemia = system: MOLT-4 leukemia
NCI-H226 lung = system: NCI-H226 lung
NCI-H23 lung = system: NCI-H23 lung
NCI-H460 lung = system: NCI-H460 lung
NCI-H522 lung = system: NCI-H522 lung
NCI/ADR-RES ovarian = system: NCI/ADR-RES ovarian
OVCAR-3 ovarian = system: OVCAR-3 ovarian
OVCAR-4 ovarian = system: OVCAR-4 ovarian
OVCAR-5 ovarian = system: OVCAR-5 ovarian
OVCAR-8 ovarian = system: OVCAR-8 ovarian
PC-3 prostate = system: PC-3 prostate
RPMI-8226 leukemia = system: RPMI-8226 leukemia
RXF 393 renal = system: RXF 393 renal
SF-268 CNS = system: SF-268 CNS
SF-295 CNS = system: SF-295 CNS
SF-539 CNS = system: SF-539 CNS
SK-MEL-2 melanoma = system: SK-MEL-2 melanoma
SK-MEL-28 melanoma = system: SK-MEL-28 melanoma
SK-MEL-5 melanoma = system: SK-MEL-5 melanoma
SK-OV-3 ovarian = system: SK-OV-3 ovarian
SN12C renal = system: SN12C renal
SNB-19 CNS = system: SNB-19 CNS
SNB-75 CNS = system: SNB-75 CNS
SR leukemia = system: SR leukemia
SW-620 colon = system: SW-620 colon
TK-10 renal = system: TK-10 renal
U251 CNS = system: U251 CNS
UACC-257 melanoma = system: UACC-257 melanoma
UACC-62 melanoma = system: UACC-62 melanoma
UO-31 renal = system: UO-31 renal

SMILES: N#C/C(=C1C=C/C(=N/O)C(Cl)=C/1)c1ccc(Cl)cc1
- GI50 (786-0 renal): 5.16 µM
- TGI (786-0 renal): 19.1 µM
- GI50 (A498 renal): 3.07 µM
- TGI (A498 renal): 20.4 µM
- GI50 (A549 NSCLC): 15.6 µM
- TGI (A549 NSCLC): 46.4 µM
- GI50 (ACHN renal): 4.47 µM
- TGI (ACHN renal): 18.4 µM
- GI50 (CAKI-1 renal): 3.63 µM
- TGI (CAKI-1 renal): 14.1 µM
- GI50 (CCRF-CEM leukemia): 1.96 µM
- TGI (CCRF-CEM leukemia): 6.93 µM
- GI50 (COLO 205 colon): 12.2 µM
- TGI (COLO 205 colon): 31.1 µM
- GI50 (DU-145 prostate): 1.98 µM
- TGI (DU-145 prostate): 4.1 µM
- GI50 (EKVX NSCLC): 10.4 µM
- TGI (EKVX NSCLC): 59.2 µM
- GI50 (HCC-2998 colon): 19.1 µM
- TGI (HCC-2998 colon): 38.4 µM
- GI50 (HCT-116 colon): 1.82 µM
- TGI (HCT-116 colon): 4.39 µM
- GI50 (HCT-15 colon): 6.67 µM
- TGI (HCT-15 colon): 77.7 µM
- GI50 (HL-60(TB) leukemia): 1.24 µM
- TGI (HL-60(TB) leukemia): 5 µM
- GI50 (HOP-62 NSCLC): 4.29 µM
- TGI (HOP-62 NSCLC): 19.1 µM
- GI50 (HOP-92 NSCLC): 7.92 µM
- TGI (HOP-92 NSCLC): 51.1 µM
- GI50 (HS 578T breast): 6.65 µM
- TGI (HS 578T breast): 44.3 µM
- GI50 (HT29 colon): 5.46 µM
- TGI (HT29 colon): 19.8 µM
- GI50 (IGROV1 ovarian): 2.66 µM
- TGI (IGROV1 ovarian): 7.89 µM
- GI50 (K-562 leukemia): 1.16 µM
- TGI (K-562 leukemia): 8.51 µM
- GI50 (KM12 colon): 0.721 µM
- TGI (KM12 colon): 10.1 µM
- GI50 (LOX IMVI melanoma): 2.62 µM
- TGI (LOX IMVI melanoma): 10.3 µM
- GI50 (M14 melanoma): 11.5 µM
- TGI (M14 melanoma): 31.6 µM
- GI50 (MALME-3M melanoma): 12.2 µM
- TGI (MALME-3M melanoma): 29.3 µM
- GI50 (MCF7 breast): 2.42 µM
- TGI (MCF7 breast): 8.89 µM
- GI50 (MDA-MB-231 breast): 7.24 µM
- TGI (MDA-MB-231 breast): 23.4 µM
- GI50 (MDA-MB-435): 1.96 µM
- TGI (MDA-MB-435): 8.45 µM
- GI50 (MOLT-4 leukemia): 2.35 µM
- TGI (MOLT-4 leukemia): 7.65 µM
- GI50 (NCI-H226 lung): 7.59 µM
- TGI (NCI-H226 lung): 27.3 µM
- GI50 (NCI-H23 lung): 25.9 µM
- TGI (NCI-H23 lung): > 100 µM
- GI50 (NCI-H460 lung): 3.8 µM
- TGI (NCI-H460 lung): 15.2 µM
- GI50 (NCI-H522 lung): 4.12 µM
- TGI (NCI-H522 lung): 15.7 µM
- GI50 (NCI/ADR-RES ovarian): 4.7 µM
- TGI (NCI/ADR-RES ovarian): 26.1 µM
- GI50 (OVCAR-3 ovarian): 3.97 µM
- TGI (OVCAR-3 ovarian): 13.7 µM
- GI50 (OVCAR-4 ovarian): 17 µM
- TGI (OVCAR-4 ovarian): 91.2 µM
- GI50 (OVCAR-5 ovarian): 12.7 µM
- TGI (OVCAR-5 ovarian): 43.4 µM
- GI50 (OVCAR-8 ovarian): 12.3 µM
- TGI (OVCAR-8 ovarian): 51.9 µM
- GI50 (PC-3 prostate): 4.99 µM
- TGI (PC-3 prostate): 71.1 µM
- GI50 (RPMI-8226 leukemia): 1.61 µM
- TGI (RPMI-8226 leukemia): 11.8 µM
- GI50 (RXF 393 renal): 13.5 µM
- TGI (RXF 393 renal): 36.1 µM
- GI50 (SF-268 CNS): 3.66 µM
- TGI (SF-268 CNS): 14.7 µM
- GI50 (SF-295 CNS): 4.08 µM
- TGI (SF-295 CNS): 14.4 µM
- GI50 (SF-539 CNS): 3.16 µM
- TGI (SF-539 CNS): 11.9 µM
- GI50 (SK-MEL-2 melanoma): 7.8 µM
- TGI (SK-MEL-2 melanoma): 24.8 µM
- GI50 (SK-MEL-28 melanoma): 30.1 µM
- TGI (SK-MEL-28 melanoma): > 100 µM
- GI50 (SK-MEL-5 melanoma): 16.5 µM
- TGI (SK-MEL-5 melanoma): 40.3 µM
- GI50 (SK-OV-3 ovarian): 15.7 µM
- TGI (SK-OV-3 ovarian): 41.6 µM
- GI50 (SN12C renal): 2.99 µM
- TGI (SN12C renal): 8.02 µM
- GI50 (SNB-19 CNS): 18.4 µM
- TGI (SNB-19 CNS): > 100 µM
- GI50 (SNB-75 CNS): 3.78 µM
- TGI (SNB-75 CNS): 18.4 µM
- GI50 (SR leukemia): 1.36 µM
- TGI (SR leukemia): 4.05 µM
- GI50 (SW-620 colon): 3.79 µM
- TGI (SW-620 colon): 15.1 µM
- GI50 (TK-10 renal): 5.25 µM
- TGI (TK-10 renal): 20.2 µM
- GI50 (U251 CNS): 5.7 µM
- TGI (U251 CNS): 20 µM
- GI50 (UACC-257 melanoma): 21.2 µM
- TGI (UACC-257 melanoma): > 100 µM
- GI50 (UACC-62 melanoma): 4.01 µM
- TGI (UACC-62 melanoma): 18 µM
- GI50 (UO-31 renal): 3.33 µM
- TGI (UO-31 renal): 13 µM

Reference: PubChem BioAssay (NCI)
